“And” between values parts separate entries of the source, which are not always exact repeats. Equal values may be shown once.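 Where inhibition never reached the appropriate level, the endpoint shown equals the highest concentration tested. Otherwise, values were interpolated linearly from a five-concentration, 48-hour dose response in 96-well plates. GI50: concentration for 50% inhibition of growth. TGI is the concentration that stops growth completely.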

Test systems include COLO 205 colon; EKVX NSCLC; ACHN renal; SK-OV-3 ovarian; SNB-75 CNS; HT29 colon; RXF 393 renal; SN12C renal; NCI-H23 lung; MDA-MB-231 breast.
What all share (assay): NCI tumour cell line growth inhibition, 48 h

Consider `Cc1c(NC(=O)CCl)c(=O)oc2c(C)c3occc(=O)c3cc12`, for which the TGI in the experiment with COLO 205 colon turned out to be 40 µM; in the experiment with EKVX NSCLC, 38.2 µM; in the experiment on ACHN renal it was 80.5 µM; in the experiment with SK-OV-3 ovarian, 32.8 µM; with SNB-75 CNS it was 8.47 µM; in the experiment on HT29 colon, 35.3 µM.

`CN(C)CCNC(=O)c1cccc2nc3ccc4cccnc4c3nc12`: the TGI in the experiment with COLO 205 colon turned out to be 1.55 µM; in the experiment on RXF 393 renal, 1.3 µM; in the experiment with EKVX NSCLC, 2.07 µM; in the experiment with ACHN renal, 3.27 µM; in the experiment on SN12C renal it was 4.31 µM; in the experiment on SK-OV-3 ovarian it was 8.53 µM. Besides, the TGI in the experiment on SNB-75 CNS is 1.84 µM; in the experiment on NCI-H23 lung, 1.35 µM; in the experiment on HT29 colon it was 4.88 µM.

With `O=C1NC(=O)C(=Cc2c3ccccc3cc3ccccc23)C(=O)N1`, the TGI in the experiment on COLO 205 colon, in the experiment with RXF 393 renal, with ACHN renal, with SN12C renal, in the experiment with SK-OV-3 ovarian and in the experiment on NCI-H23 lung was over 100 µM each time. The compound also came in with a TGI with HT29 colon of over 100 µM.

Regarding `CC(C)(CN1CCOCC1)C(=O)/C=C/c1ccc(/C=C/C(=O)C(C)(C)CN2CCOCC2)cc1`, the TGI was determined as 3.01 µM in the experiment on COLO 205 colon; 3.45 µM in the experiment with RXF 393 renal; 4.12 µM in the experiment with EKVX NSCLC; 4.92 µM with ACHN renal; 3.57 µM in the experiment with SN12C renal; 39.8 µM in the experiment on SK-OV-3 ovarian. Further, the figures for the TGI in the experiment with SNB-75 CNS and in the experiment with HT29 colon were 4.44 µM and 1.88 µM, respectively.

With `CC(=O)O[C@@]12CO[C@@H]1C[C@H](O)[C@@]1(C)C(=O)[C@H](O)C3=C(C)[C@@H](OC(=O)[C@H](O)[C@@H](NC(=O)OC(C)(C)C)c4ccccc4)C[C@@](O)([C@@H](OC(=O)c4ccccc4)C12)C3(C)C` (some centres not stated), the TGI is 0.0251 µM with COLO 205 colon; 50 µM and > 100 µM in the experiment with ACHN renal; 50 µM with SN12C renal; 50 µM and 72.6 µM in the experiment with SK-OV-3 ovarian; 50 µM in the experiment with NCI-H23 lung; 28 µM and > 100 µM in the experiment on MDA-MB-231 breast. In the experiment with HT29 colon, the TGI was 41.7 µM. In addition, the GI50 with SN12C renal is under 0.005 µM; in the experiment with SK-OV-3 ovarian, under 0.005 µM; in the experiment with NCI-H23 lung, under 0.005 µM; in the experiment on MDA-MB-231 breast, 0.00751 µM and 0.0717 µM; in the experiment with HT29 colon, under 0.005 µM.

For `Cc1cc2c(c3nocc13)C(=O)c1ccccc1C2=O`, the TGI in the experiment on COLO 205 colon, in the experiment on RXF 393 renal, with EKVX NSCLC, in the experiment on ACHN renal, in the experiment on SN12C renal and in the experiment on SK-OV-3 ovarian was over 100 µM in each case. For the same compound, the TGI with SNB-75 CNS, in the experiment with NCI-H23 lung and in the experiment on HT29 colon was over 100 µM in each case.

For `CCCCCCCCCCCC[N+](C)(C)Cc1ccccc1`, the GI50 in the experiment with COLO 205 colon is 1.65 µM; in the experiment on ACHN renal it was 5.61 µM; with SN12C renal it was 2.11 µM; in the experiment on SK-OV-3 ovarian it was 3.05 µM; with SNB-75 CNS, 1.45 µM; with NCI-H23 lung, 2.5 µM. The figures for the GI50 in the experiment on MDA-MB-231 breast and in the experiment with HT29 colon were 1.62 µM and 1.23 µM, respectively. The TGI in the experiment with COLO 205 colon amounted to 3.34 µM; in the experiment on ACHN renal, 20.4 µM; in the experiment on SN12C renal, 5.12 µM; in the experiment on SK-OV-3 ovarian it was 10.7 µM; in the experiment on SNB-75 CNS it was 3.53 µM; with NCI-H23 lung it was 10.2 µM. For the same compound, the TGI turned out to be 3.81 µM in the experiment on MDA-MB-231 breast and 3.24 µM in the experiment with HT29 colon.

With `Cc1cc(C)nc(NS(=O)(=O)c2ccc(Nc3c4ccccc4nc4c(C(=O)Nc5ccc(S(=O)(=O)Nc6cc(C)on6)cc5)ccc(Cl)c34)cc2)n1`, the TGI in the experiment with RXF 393 renal was 32.7 µM; with EKVX NSCLC it was 62.5 µM; with ACHN renal, over 100 µM; in the experiment on SN12C renal, 63 µM; in the experiment with SK-OV-3 ovarian it was over 100 µM; with SNB-75 CNS it was 84.1 µM. The results for the TGI with NCI-H23 lung and in the experiment with HT29 colon were 59.7 µM and 47.8 µM, respectively.

On to `COc1cccc2c1C(=O)c1c(O)c3c(c(O)c1C2=O)C[C@@](O)(C(C)=O)C[C@@H]3OC1CC([N+]([O-])(Cc2ccccc2)Cc2ccccc2)C(O)C(C)O1` (some centres not stated), for which the TGI with RXF 393 renal was found to be 2.57 µM; in the experiment with EKVX NSCLC it was 3.47 µM; in the experiment with ACHN renal, 2.73 µM; in the experiment on SN12C renal it was 2.34 µM; with SK-OV-3 ovarian, 17.2 µM; in the experiment on SNB-75 CNS it was 4.25 µM. Moreover, the TGI is 2.58 µM in the experiment on NCI-H23 lung and 3.14 µM with HT29 colon.

As for `COc1ccc2c3c(c(C(=O)O)oc13)CCC2`, the TGI in the experiment on COLO 205 colon, in the experiment with RXF 393 renal, in the experiment on EKVX NSCLC, in the experiment with ACHN renal, in the experiment with SN12C renal and with SK-OV-3 ovarian was over 100 µM throughout. The TGI in the experiment on SNB-75 CNS, with NCI-H23 lung and with HT29 colon was over 100 µM in each case.

`CC1(C)OC2CC3COC(=O)C3CC2O1` (configuration not stated): the TGI with COLO 205 colon, in the experiment with EKVX NSCLC, in the experiment on ACHN renal, in the experiment on SN12C renal, with SK-OV-3 ovarian and in the experiment on SNB-75 CNS was over 100 µM throughout. The TGI with NCI-H23 lung and in the experiment with HT29 colon was over 100 µM each time.

Regarding `CSC(=Nc1ccccc1Cl)NC(=O)c1ccc(Br)cc1`, the TGI with COLO 205 colon, with RXF 393 renal, in the experiment on EKVX NSCLC, with ACHN renal, with SN12C renal and with SK-OV-3 ovarian was over 100 µM in each case. Moreover, the TGI with NCI-H23 lung and with HT29 colon was over 100 µM each time.

With `CCN(CCCl)CCCCCNc1c2ccccc2nc2ccc(OC)cc12`, the TGI is 3.03 µM with COLO 205 colon; 2.4 µM in the experiment on RXF 393 renal; 18.1 µM in the experiment with EKVX NSCLC; 3.09 µM in the experiment with ACHN renal; 1.78 µM with SN12C renal; 3.62 µM in the experiment with SK-OV-3 ovarian. Also, the TGI was determined as 3.02 µM with SNB-75 CNS, 1.55 µM in the experiment on NCI-H23 lung and 2.94 µM with HT29 colon.

For `NCCOCn1cc(Cc2cccc(OCc3ccccc3)c2)c(=O)[nH]c1=O`, the TGI with COLO 205 colon, in the experiment with EKVX NSCLC, in the experiment with SN12C renal, in the experiment on SK-OV-3 ovarian, in the experiment with SNB-75 CNS and in the experiment with NCI-H23 lung was over 100 µM in each case. The compound also gave a TGI in the experiment with HT29 colon of over 100 µM.

As for `CCCN(CCC)CCc1cc(C(C)=O)n(S(=O)(=O)c2ccc(C)cc2)c1`, the TGI with COLO 205 colon, in the experiment on EKVX NSCLC, in the experiment with ACHN renal, in the experiment with SN12C renal, with SK-OV-3 ovarian and with SNB-75 CNS was over 100 µM each time. The TGI with NCI-H23 lung and in the experiment on HT29 colon was over 100 µM in each case.

The record behind these values is PubChem BioAssay (NCI).
